Legend:
Mus musculus [1] = assay: Analgesic activity in po dosed albino mouse assessed as protection against acetic acid-induced writhing administered 1 hr prior to prior to acetic acid challenge measured at 5 to 8 mins; assay type: functional
Mus musculus [2] = assay: Analgesic activity in albino mouse assessed as protection against thermal-induced paw licking or jumping behaviour at 10 mg/kg, po administered 1 hr prior to testing by hot plate test relative to control; assay type: functional
Mus musculus [3] = assay: Analgesic activity in albino mouse assessed as inhibition of abdominal convulsion at 10 mg/kg, po administered 1 hr prior to acetic acid challenge measured at 5 to 8 mins by acetic acid-induced writhing test relative to control; assay type: functional; details: Abdomen
[4] = Toxicity in po dosed albino mouse; assay type: organism-based; details: in vivo

Row | Structure (SMILES) | ED50 (Mus musculus [1]) | Activity (Mus musculus [2]) | inhibition in vivo at 10 mg/kg (Mus musculus [3]) | LD50 [4]
1 | CC1=CC[C@@H]2[C@@H](O[C@H](c3ccc(Cl)cc3)OC2(C)C)[C@@H]1O | 4.5 mg/kg | 8% | 88% | –
2 | CC1=CC[C@@H]2[C@@H](O[C@H](c3ccc(F)cc3)OC2(C)C)[C@@H]1O | – | 0% | 40% | 1000 mg/kg
3 | CC1=CC[C@@H]2[C@@H](O[C@H](c3ccc(Br)cc3)OC2(C)C)[C@@H]1O | – | 33% | 33% | –
4 | CC1=CC[C@@H]2[C@@H](O[C@H](c3ccc([N+](=O)[O-])cc3)OC2(C)C)[C@@H]1O | – | 84% | 65% | –
5 | CC1=CC[C@@H]2[C@@H](O[C@H](c3cccc(Cl)c3)OC2(C)C)[C@@H]1O | – | 36% | 27% | –
6 | CC1=CC[C@@H]2[C@@H](O[C@H](c3ccc(Cl)c(Cl)c3)OC2(C)C)[C@@H]1O | – | 36% | 14% | –
7 | CC1=CC[C@@H]2[C@@H](O[C@H](c3cccc(F)c3)OC2(C)C)[C@@H]1O | – | 0% | 40% | –
8 | CC1=CC[C@@H]2[C@@H](O[C@H](c3ccc(C(F)(F)F)cc3)OC2(C)C)[C@@H]1O | – | 30% | 52% | –
9 | CC1=CC[C@@H]2[C@@H](O[C@H](c3cccc(Cl)c3)CC2(C)O)[C@@H]1O (mixture of isomers) | – | 14% | 26% | –
10 | O=C([O-])Cc1ccccc1Nc1c(Cl)cccc1Cl.[Na+] [DICLOFENAC SODIUM] | 5 mg/kg | 64% | 90% | –
